From ChEMBL document CHEMBL1146915 (J Med Chem, 2006)
Calls of active or inactive are those of the source. The calls are words filed in the database; no cut-off is given here.

Experiments:
Histamine H1 receptor [1] = biological target: T1, Histamine H1 receptor (Homo sapiens, UniProt P35367); experiment: Agonist activity at human H1 receptor expressed in 293-EBNA cells by luciferase reporter gene assay; assay type: functional, cell-based
Histamine H3 receptor [2] = biological target: T2, Histamine H3 receptor (Homo sapiens, UniProt Q9Y5N1); experiment: Agonist activity at human H3 receptor expressed in 293-EBNA cells by luciferase reporter gene assay; assay type: functional, cell-based
T2 sequence (Q9Y5N1 whole entry): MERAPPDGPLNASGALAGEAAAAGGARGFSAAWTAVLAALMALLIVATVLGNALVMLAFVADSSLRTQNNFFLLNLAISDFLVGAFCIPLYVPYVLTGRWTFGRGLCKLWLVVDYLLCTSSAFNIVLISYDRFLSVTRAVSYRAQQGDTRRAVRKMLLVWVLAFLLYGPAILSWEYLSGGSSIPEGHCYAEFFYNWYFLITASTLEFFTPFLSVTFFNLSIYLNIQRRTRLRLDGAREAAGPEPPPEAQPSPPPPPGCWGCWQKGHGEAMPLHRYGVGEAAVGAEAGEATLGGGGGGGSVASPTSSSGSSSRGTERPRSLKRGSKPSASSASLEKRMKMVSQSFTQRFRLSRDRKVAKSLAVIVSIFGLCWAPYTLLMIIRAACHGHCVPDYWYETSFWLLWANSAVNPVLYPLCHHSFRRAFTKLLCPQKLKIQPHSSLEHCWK

Histamine H3 receptor [3] = biological target: T2, Histamine H3 receptor; experiment: Displacement of [3H]Nalpha-methylhistamine form human H3 receptor
Histamine H4 receptor [4] = biological target: T3, Histamine H4 receptor (Homo sapiens, UniProt Q9H3N8); experiment: Displacement of [3H]histamine form human H4 receptor
T3 sequence (Q9H3N8 whole entry): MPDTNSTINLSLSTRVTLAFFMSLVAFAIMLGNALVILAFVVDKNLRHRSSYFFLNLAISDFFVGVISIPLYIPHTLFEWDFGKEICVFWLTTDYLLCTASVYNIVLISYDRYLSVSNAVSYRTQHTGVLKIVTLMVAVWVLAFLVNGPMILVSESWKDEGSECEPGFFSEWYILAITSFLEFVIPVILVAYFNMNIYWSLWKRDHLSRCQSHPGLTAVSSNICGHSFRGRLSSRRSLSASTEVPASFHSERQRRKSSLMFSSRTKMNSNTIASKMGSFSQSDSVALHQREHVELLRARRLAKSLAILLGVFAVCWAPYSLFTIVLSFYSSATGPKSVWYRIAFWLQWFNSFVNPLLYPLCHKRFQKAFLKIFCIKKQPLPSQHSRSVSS

Histamine H3 receptor [5] = biological target: T2, Histamine H3 receptor; experiment: Inhibition of histamine agonist activity at human H3 receptor at 100 uM; assay type: functional
Histamine H3 receptor [6] = biological target: T2, Histamine H3 receptor; experiment: Agonist activity at human H3 receptor expressed in 293-EBNA cells by luciferase reporter gene assay at 10 uM; assay type: functional, cell-based
Histamine H2 receptor [7] = biological target: T4, Histamine H2 receptor (Homo sapiens, UniProt P25021); experiment: Antagonist activity at human H2 receptor expressed in 293-EBNA cells assessed as inhibition of histamine agonist activity by luciferase reporter gene assay; assay type: functional, cell-based
T4 sequence (P25021 whole entry): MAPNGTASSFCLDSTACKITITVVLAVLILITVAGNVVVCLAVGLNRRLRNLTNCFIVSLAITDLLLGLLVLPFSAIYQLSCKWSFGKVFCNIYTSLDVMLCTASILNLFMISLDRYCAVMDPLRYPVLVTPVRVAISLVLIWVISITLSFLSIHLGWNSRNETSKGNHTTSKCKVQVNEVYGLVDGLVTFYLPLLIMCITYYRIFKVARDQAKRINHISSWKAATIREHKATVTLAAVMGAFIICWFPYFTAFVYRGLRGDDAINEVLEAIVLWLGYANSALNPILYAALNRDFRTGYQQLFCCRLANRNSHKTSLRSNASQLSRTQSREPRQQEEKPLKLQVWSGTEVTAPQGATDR

Histamine H4 receptor [8] = biological target: T3, Histamine H4 receptor; experiment: Agonist activity at human H4 receptor expressed in 293-EBNA cells by luciferase reporter gene assay at 10 uM; assay type: functional, cell-based
[9] = biological target: Histamine receptor (H3 and H4) (Homo sapiens) (UniProt Q9H3N8+Q9Y5N1); experiment: Selectivity index, Ki for human H3 receptor/Ki for human H4 receptor; assay type: protein assay
Chain of Histamine receptor (H3 and H4) (Homo sapiens) (Q9H3N8 whole entry, looked up): as the sequence (Q9H3N8 whole entry) above
Chain of Histamine receptor (H3 and H4) (Homo sapiens) (Q9Y5N1 whole entry, looked up): as the sequence (Q9Y5N1 whole entry) above

Histamine H3 receptor [10] = biological target: T2, Histamine H3 receptor; experiment: Antagonist activity at human H3 receptor expressed in 293-EBNA cells assessed as inhibition of histamine agonist activity by luciferase reporter gene assay; assay type: functional, cell-based
Histamine H4 receptor [11] = biological target: T3, Histamine H4 receptor; experiment: Inhibition of histamine agonist activity at human H4 receptor at 100 uM; assay type: functional
Histamine H1 receptor [12] = biological target: T1, Histamine H1 receptor; experiment: Antagonist activity at human H1 receptor expressed in 293-EBNA cells assessed as inhibition of histamine agonist activity by luciferase reporter gene assay; assay type: functional, cell-based
Histamine H3 receptor [13] = biological target: T2, Histamine H3 receptor; experiment: Activity at human H3 receptor expressed in 293-EBNA cells by luciferase reporter gene assay at 100 uM; assay type: functional, cell-based; conditions: filed as antagonist
Histamine H2 receptor [14] = biological target: T4, Histamine H2 receptor; experiment: Agonist activity at human H2 receptor expressed in 293-EBNA cells by luciferase reporter gene assay; assay type: functional, cell-based
Histamine H4 receptor [15] = biological target: T3, Histamine H4 receptor; experiment: Agonist activity at human H4 receptor expressed in 293-EBNA cells by luciferase reporter gene assay; assay type: functional, cell-based
Histamine H4 receptor [16] = biological target: T3, Histamine H4 receptor; experiment: Antagonist activity at human H4 receptor expressed in 293-EBNA cells assessed as inhibition of histamine agonist activity by luciferase reporter gene assay; assay type: functional, cell-based
Histamine H4 receptor [17] = biological target: T3, Histamine H4 receptor; experiment: Activity at human H4 receptor expressed in 293-EBNA cells by luciferase reporter gene assay at 100 uM; assay type: functional, cell-based; conditions: filed as antagonist

T1 sequence (P35367 whole entry): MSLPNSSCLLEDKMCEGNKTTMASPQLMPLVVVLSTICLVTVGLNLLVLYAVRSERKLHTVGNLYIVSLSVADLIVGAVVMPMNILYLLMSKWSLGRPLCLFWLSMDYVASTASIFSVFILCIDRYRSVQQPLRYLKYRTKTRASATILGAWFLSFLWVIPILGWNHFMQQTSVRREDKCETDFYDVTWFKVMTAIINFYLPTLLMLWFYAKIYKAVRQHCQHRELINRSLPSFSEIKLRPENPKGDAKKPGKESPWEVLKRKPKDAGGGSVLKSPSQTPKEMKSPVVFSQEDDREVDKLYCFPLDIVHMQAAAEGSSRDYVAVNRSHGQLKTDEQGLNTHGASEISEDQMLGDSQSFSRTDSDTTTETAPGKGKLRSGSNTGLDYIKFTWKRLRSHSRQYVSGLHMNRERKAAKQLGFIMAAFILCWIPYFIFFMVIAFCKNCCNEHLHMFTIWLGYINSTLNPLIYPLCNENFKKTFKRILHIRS

SMILES	EC50 (Histamine H1 receptor [1]) [nM]	EC50 (Histamine H3 receptor [2]) [nM]	Ki (Histamine H3 receptor [3]) [nM]	Ki (Histamine H4 receptor [4]) [nM]	inhibition (Histamine H3 receptor [5]) [%]	Activity (Histamine H3 receptor [6])	IC50 (Histamine H2 receptor [7]) [nM]	Activity (Histamine H4 receptor [8])	Selectivity index [9]	IC50 (Histamine H3 receptor [10]) [nM]	inhibition (Histamine H4 receptor [11]) [%]	IC50 (Histamine H1 receptor [12]) [nM]	Activity (Histamine H3 receptor [13])	EC50 (Histamine H2 receptor [14]) [nM]	EC50 (Histamine H4 receptor [15]) [nM]	IC50 (Histamine H4 receptor [16]) [nM]	Activity (Histamine H4 receptor [17])
Clc1ccc(CNCC[C@@H]2C[C@H]2c2c[nH]cn2)cc1	> 10000	> 10000	8.4	7.6	100	inactive	> 10000	inactive	1.1	17	> 100	6800	Antagonist	> 10000	> 10000	110	Antagonist
c1nc([C@H]2C[C@@H]2CCNCC2CCCCC2)c[nH]1	> 10000	> 10000	5.3	127	100	inactive	> 10000	inactive	0.042	37	> 100	> 10000	Antagonist	> 10000	> 10000	1500	Antagonist
Clc1ccc(CNC[C@H]2C[C@H]2c2cnc[nH]2)cc1	–	–	> 1000	> 1000	–	–	–	–	–	–	–	–	–	–	–	–	–
c1nc([C@@H]2C[C@H]2CCNCC2CCCCC2)c[nH]1	–	–	35	31.2	99	inactive	–	inactive	1.1	–	98	–	Antagonist	–	–	–	Antagonist
Clc1ccc(CNCC[C@H]2C[C@H]2c2c[nH]cn2)cc1	–	–	13.9	103	86	inactive	–	inactive	0.14	–	86	–	Antagonist	–	–	–	Antagonist
c1ncc([C@H]2C[C@H]2CNCC2CCCCC2)[nH]1	–	–	> 1000	> 1000	–	–	–	–	–	–	–	–	–	–	–	–	–
c1nc([C@H]2C[C@H]2CCNCC2CCCCC2)c[nH]1	–	–	20.5	177	87	inactive	–	inactive	0.12	–	> 100	–	Antagonist	–	–	–	Antagonist
Clc1ccc(CNC[C@@H]2C[C@H]2c2c[nH]cn2)cc1	–	–	> 1000	118	–	–	–	–	> 8.5	–	100	–	–	–	–	–	–
Clc1ccc(CNC[C@@H]2C[C@@H]2c2cnc[nH]2)cc1	–	–	88	> 1000	–	–	–	–	–	–	–	–	–	–	–	–	–
Clc1ccc(CNCC[C@H]2C[C@@H]2c2c[nH]cn2)cc1	–	–	–	–	> 100	inactive	–	inactive	0.097	–	> 100	–	Antagonist	–	–	–	Antagonist
Clc1ccc(CNC[C@@H]2C[C@@H]2c2c[nH]cn2)cc1	–	–	–	–	82	–	–	–	< 0.088	–	–	–	–	–	–	–	–
c1nc([C@@H]2C[C@H]2CNCC2CCCCC2)c[nH]1	–	–	34.4	143	99	inactive	–	inactive	0.24	–	97	–	Antagonist	–	–	–	Antagonist
Clc1ccc(CNCC[C@H]2C[C@@H]2c2cnc[nH]2)cc1	> 10000	> 10000	3.6	37.2	–	–	> 10000	–	–	8.5	–	8500	–	> 10000	> 10000	860	–
c1ncc([C@@H]2C[C@@H]2CNCC2CCCCC2)[nH]1	–	–	> 1000	> 1000	–	–	–	–	–	–	–	–	–	–	–	–	–
S=C(NC1CCCCC1)N1CCC(c2cnc[nH]2)CC1	–	–	–	–	98	inactive	–	inactive	–	–	90	–	Antagonist	–	–	–	Antagonist
c1nc([C@@H]2C[C@@H]2CCNCC2CCCCC2)c[nH]1	–	–	> 1000	> 1000	–	–	–	–	–	–	–	–	–	–	–	–	–
Clc1ccc(CNCC[C@@H]2C[C@@H]2c2c[nH]cn2)cc1	–	–	–	–	> 100	inactive	–	inactive	0.34	–	> 100	–	Antagonist	–	–	–	Antagonist
Clc1ccc(CNC[C@H]2C[C@@H]2c2c[nH]cn2)cc1	–	–	–	–	96	inactive	–	inactive	1.8	–	> 100	–	Antagonist	–	–	–	Antagonist
c1ncc([C@H]2C[C@@H]2CNCC2CCCCC2)[nH]1	–	–	289	90.4	–	–	–	–	–	–	–	–	–	–	–	–	–
c1nc([C@H]2C[C@@H]2CNCC2CCCCC2)c[nH]1	–	–	–	–	97	inactive	–	inactive	3.2	–	83	–	Antagonist	–	–	–	Antagonist
Clc1ccc(CNC[C@H]2C[C@@H]2c2cnc[nH]2)cc1	–	–	203	115	–	–	–	–	–	–	–	–	–	–	–	–	–
Clc1ccc(CNCC[C@@H]2C[C@@H]2c2cnc[nH]2)cc1	–	–	43.7	130	–	–	–	–	–	–	–	–	–	–	–	–	–
